Experimental data: patent US20260053812A1, “METHODS OF TREATING HYPERTENSION WITH A COMBINATION OF AN ALDOSTERONE SYNTHASE INHIBITOR AND A DIURETIC” (Mineralys Therapeutics, Inc., priority 2022, published 2026)
Marks after values point to notes of the source that are not given here.

Key:
Type in all cases: in vivo, human
11-deoxycorticosterone = assay: Pharmacodynamics: 11-deoxycorticosterone
Description: (§1) PK/PD Analysis Set includes all subjects in the SAF who have sufficient data available for the analysis of pharmacokinetic and pharmacodynamic measurements. In the analyses based on PKPD, subjects will be analyzed according to the actual treatment received.

serum aldosterone = assay: Pharmacodynamics: serum aldosterone; settings: for Aldosterone, mean observed: BL; for Aldosterone levels relative to baseline: Part 1 lorundrostat-treated (range across doses)
Description: as §1

Serum sodium = settings: active treatment cohorts, Parts 1 and 2
[1] = system: subjects with uncontrolled hypertension; assay: 24-hour ambulatory blood pressure monitoring (ABPM); settings: for Proportion of subjects with nighttime dip 10-20% in 24-hour systolic ABP / Proportion of subjects with nighttime dip <10% in 24-hour systolic ABP / Proportion of subjects with nighttime dip >20% in 24-hour systolic ABP: Part 1, FAS
Experimental: Ambulatory blood pressure monitoring was accomplished with an ambulatory blood pressure monitoring device that consists of a blood pressure cuff worn on a subject's arm attached to a small recording device that is typically attached to the subject's belt or waistband. The ABPM device is worn for 24 hours. Throughout that period, the device records the subject's blood pressure at regular intervals, during the subject's routine daily activities and while they are sleeping. The ABPM thus provides a complete record of the subject's blood pressure over a 24-hour period. 24-hour ABPM was measured in the clinic at baseline and Study Week 7. If, for any reason, the ABPM procedure was deemed a failure at the end of Study Week 7, it may have been repeated at Study Week 8 and therefore no imputation was employed regardless of use of rescue medications. Additionally, ABPM was also collected at the end of Study Week 4 in Part 2. If a repeat test was performed, it supersedes the original test results for that visit. Specific derived variables based on ABPM measurements include mean 24-hour, mean Daytime, and mean Nighttime of SBP, DBP, and heart rate. Change from baseline to Week 7 in 24-hour mean SBP (and DBP) based on ABPM will be analyzed using an ANCOVA with a term for treatment group and a baseline mean 24-hour value as a covariate. The nighttime dip is defined as 100% x(mean daytime SBP−mean nighttime SBP)/mean daytime SBP It is expressed as a percentage and is summarized by treatment group and visit using descriptive statistics. In addition, the number and percentage of subjects with nighttime dip in each of the dipper categories (Bloomfield & Park, 2015) is presented by treatment group and visit. The categories are: • (a) <10% • (b) 10-20% inclusive • (c) >20%

Serum potassium = assay: Serum potassium
Description: Safety endpoints of this study are: • (a) Incidence and severity of all spontaneously reported adverse events (AEs) • (b) Changes in vital signs (standing SBP, standing DBP, body temperature, heart rate, and respiratory rate) • (c) Changes in electrocardiogram parameters (including cardiac intervals: PR, QRS, QT, and corrected QT interval using Fridericia's formula) • (d) Changes in clinical laboratory assessments (hematology, chemistry, coagulation, and urinalysis) • (e) Change in office-measured SBP from Study Week 8 (end-of-treatment period to end of follow up (i.e. end of Study Week 12 for Part 1 and end of Study 10 for Part 2).
The Safety Analysis Set includes all enrolled subjects who received at least one dose of study treatment (MLS-101 or placebo). In analyses performed on the Safety Analysis Set, subjects will be analyzed according to their actual treatment received.

CC(=O)N[C@H]1CC[C@H](NC(=O)CN2CCN(c3nncc(-c4ccc(C)cc4)n3)CC2)CC1 [Compound A HBr]
11-Deoxycorticosterone, mean observed (11-deoxycorticosterone; Part 1, 12.5 mg BID, Wk 12): 8.0 ng/dL | 11-Deoxycorticosterone, mean observed (11-deoxycorticosterone; Part 1, 12.5 mg QD, BL): 8.3 ng/dL | 11-Deoxycorticosterone, mean observed (11-deoxycorticosterone; Part 1, 25 mg BID, Wk 12): 8.0 ng/dL | 11-Deoxycorticosterone, mean observed (11-deoxycorticosterone; Part 1, 50 mg QD, BL): 8.3 ng/dL | 11-Deoxycorticosterone, mean observed (11-deoxycorticosterone; Part 1, 100 mg QD, Wk 12): 8.4 ng/dL | 11-deoxycorticosterone (11-deoxycorticosterone; Part 1 active treatment arms, Week 4 compared with placebo): Transient increases | 11-Deoxycorticosterone, mean observed (11-deoxycorticosterone; Part 2, 100 mg QD, BL): 10.71 ng/dL | 11-deoxycorticosterone levels (11-deoxycorticosterone; summary of trial): unaffected | Aldosterone, mean observed (serum aldosterone; Part 1, 12.5 mg BID): 6.636 ng/dL | Aldosterone, mean observed (serum aldosterone; Part 1, 12.5 mg QD): 7.065 ng/dL | Aldosterone, mean observed (serum aldosterone; Part 1, 25 mg BID): 6.558 ng/dL | Aldosterone, mean observed (serum aldosterone; Part 1, 50 mg QD): 6.205 ng/dL | Aldosterone, mean observed (serum aldosterone; Part 1, 100 mg QD): 6.533 ng/dL | Aldosterone levels relative to baseline (serum aldosterone; Week 4): −40.1% to 7.4% | Aldosterone levels relative to baseline (serum aldosterone; Week 12): −26.6% to 15.9% | Aldosterone, mean observed (serum aldosterone; Part 2, 100 mg QD): 6.435 ng/dL | Serum aldosterone levels (serum aldosterone; pharmacodynamic response across doses): dose-dependent reduction | Serum sodium levels (Serum sodium): decreased | Proportion of subjects with nighttime dip 10-20% in 24-hour systolic ABP ([1]; 12.5 mg BID, EoT): (31.3) % | Proportion of subjects with nighttime dip <10% in 24-hour systolic ABP ([1]; 12.5 mg BID, EoT): (68.8) % | LSM Δ with Placebo, change from baseline in Nighttime Mean DBP (ABPM, ANCOVA) ([1]; 12.5 mg QD, End of Treatment, Part 1, FAS post-hoc): −1.53 mmHg | Proportion of subjects with nighttime dip 10-20% in 24-hour systolic ABP ([1]; 12.5 mg QD, EoT): (35.7) % | Proportion of subjects with nighttime dip <10% in 24-hour systolic ABP ([1]; 12.5 mg QD, EoT): (64.3) % | Proportion of subjects with nighttime dip 10-20% in 24-hour systolic ABP ([1]; 25 mg BID, EoT): (16.7) % | Proportion of subjects with nighttime dip <10% in 24-hour systolic ABP ([1]; 25 mg BID, EoT): (79.2) % | Proportion of subjects with nighttime dip >20% in 24-hour systolic ABP ([1]; 25 mg BID, EoT): (4.2) % | Proportion of subjects with nighttime dip 10-20% in 24-hour systolic ABP ([1]; 50 mg QD, EoT): (21.4) % | Proportion of subjects with nighttime dip <10% in 24-hour systolic ABP ([1]; 50 mg QD, EoT): (78.6) % | Proportion of subjects with nighttime dip 10-20% in 24-hour systolic ABP ([1]; 100 mg QD, EoT): (45.8) % | Proportion of subjects with nighttime dip <10% in 24-hour systolic ABP ([1]; 100 mg QD, EoT): (45.8) % | Proportion of subjects with nighttime dip >20% in 24-hour systolic ABP ([1]; 100 mg QD, EoT): (8.3) % | Subjects with nighttime dip 10-20% in 24-hour systolic ABP ([1]; 100 mg QD, EoT, Part 2, FAS): 9 n | Subjects with nighttime dip <10% in 24-hour systolic ABP ([1]; 100 mg QD, EoT, Part 2, FAS): 18 n | Subjects with nighttime dip >20% in 24-hour systolic ABP ([1]; 100 mg QD, EoT, Part 2, FAS): 0 n | Subjects with nighttime dip 10-20% in 24-hour systolic ABP ([1]; 100 mg QD, Week 4, Part 2, FAS): 6 n | Subjects with nighttime dip <10% in 24-hour systolic ABP ([1]; 100 mg QD, Week 4, Part 2, FAS): 18 n | Subjects with nighttime dip >20% in 24-hour systolic ABP ([1]; 100 mg QD, Week 4, Part 2, FAS): 1 n | Increase in potassium levels relative to baseline (Serum potassium; 25 mg BID Part 1, Week 8): 0.341 mmol/L | Serum K+ Mean Change from Baseline to Wk 8 (Serum potassium; 50 mg QD (n = 28)): +0.25 mmol/L | Serum K+ Mean Change from Baseline to Wk 8 (Serum potassium; 100 mg QD (n = 61)): +0.29 mmol/L | Increase in potassium levels relative to baseline (Serum potassium; 100 mg QD Part 2, Week 8): 0.208 mmol/L | Number of individuals with verified or multiple increased serum K+ 5.2-5.5 mMol/L during treatment (Serum potassium; 100 mg QD, Part 1): 5 | Number of individuals with verified or multiple increased serum K+ 5.6-6.0 mMol/L during treatment (Serum potassium; 100 mg QD, Part 1): 3 | Number of individuals with verified or multiple increased serum K+ 6.1-6.5 mMol/L during treatment (Serum potassium; 100 mg QD, Part 1): 0 | Percent of individuals with increased serum K+ 5.2-5.5 mMol/L (Serum potassium; 100 mg QD, Part 1): (18.5%) | Percent of individuals with increased serum K+ 5.6-6.0 mMol/L (Serum potassium; 100 mg QD, Part 1): (10.7%) | Number of individuals with increased serum K+ >6.5 mMol/L during treatment (Serum potassium; 100 mg QD, Part 1, isolated incident not verified by repeat measurement): 1* | Number of individuals with verified or multiple increased serum K+ 5.2-5.5 mMol/L during treatment (Serum potassium; 100 mg QD, Part 2): 1 | Number of individuals with verified or multiple increased serum K+ 5.6-6.0 mMol/L during treatment (Serum potassium; 100 mg QD, Part 2): 0 | Number of individuals with verified or multiple increased serum K+ 6.1-6.5 mMol/L during treatment (Serum potassium; 100 mg QD, Part 2): 0 | Number of individuals with verified or multiple increased serum K+ >6.5 mMol/L during treatment (Serum potassium; 100 mg QD, Part 2): 0 | Percent of individuals with increased serum K+ 5.2-5.5 mMol/L (Serum potassium; 100 mg QD, Part 2): (4%) | Number of individuals with verified or multiple increased serum K+ 5.2-5.5 mMol/L during treatment (Serum potassium; 100 mg QD, Pooled): 6 | Number of individuals with verified or multiple increased serum K+ 5.6-6.0 mMol/L during treatment (Serum potassium; 100 mg QD, Pooled): 3 | Number of individuals with verified or multiple increased serum K+ 6.1-6.5 mMol/L during treatment (Serum potassium; 100 mg QD, Pooled): 0 | Number of individuals with verified or multiple increased serum K+ >6.5 mMol/L during treatment (Serum potassium; 100 mg QD, Pooled): 0 | Percent of individuals with increased serum K+ 5.2-5.5 mMol/L (Serum potassium; 100 mg QD, Pooled): (10.3%) | Percent of individuals with increased serum K+ 5.6-6.0 mMol/L (Serum potassium; 100 mg QD, Pooled): (5.2%) | Change in group mean serum potassium (K+), Mean (Serum potassium; Part 1, N 26*): +0.50 mMol/L | Change in group mean serum potassium (K+) (Serum potassium; Part 1, N 26* (dose not given in Table 5)): +0.50 mMol/L | Change in group mean serum potassium (K+), Mean (Serum potassium; Part 2, N 31): +0.23 mMol/L | Change in group mean serum potassium (K+) (Serum potassium; Part 2, N 31 (dose not given in Table 5)): +0.23 mMol/L | Change in group mean serum potassium (K+), Mean (Serum potassium; Pooled, N 57): +0.35 mMol/L | Change in group mean serum potassium (K+) (Serum potassium; Pooled, N 57 (dose not given in Table 5)): +0.35 mMol/L | Serum potassium levels (Serum potassium; active treatment cohorts compared with placebo, Parts 1 and 2): increased | Episodes of severe hyperkalemia (Serum potassium; pooled (Part 1 and Part 2) 100 mg QD safety set (n=60)): no episodes of severe hyperkalemia | Subjects with transient elevated serum potassium greater than 6.0 mmol/L (Serum potassium; whole study, none an SAE, all resolved after discontinuation or dose adjustment, listed as lorundrostat): seven
